Measurements published in PMC9246869, “Allosteric inhibition of PPM1D serine/threonine phosphatase via an altered conformational state” (Nature Communications, 2022).
Several values for one entry are separate records, joined by “and”; a condition that tells them apart may be missing. Identical values can stand only once.

Experiments:
Solubility = assay type: physicochemical
PPM1D1–420 [1] = molecular target: T1, PPM1D1–420 (Homo sapiens, UniProt O15297); test: Isothermal titration calorimetry (ITC); assay type: binding; details: PPM1D1–420; 25 °C
T1 construct: PPM1D1–420 was PCR-amplified from the synthesized gene with BsaI sites; His(6)-SUMO (N, cleaved yes); made in house; host or cells: E. coli BL21 (DE3)
T1 sequence (O15297 1-420): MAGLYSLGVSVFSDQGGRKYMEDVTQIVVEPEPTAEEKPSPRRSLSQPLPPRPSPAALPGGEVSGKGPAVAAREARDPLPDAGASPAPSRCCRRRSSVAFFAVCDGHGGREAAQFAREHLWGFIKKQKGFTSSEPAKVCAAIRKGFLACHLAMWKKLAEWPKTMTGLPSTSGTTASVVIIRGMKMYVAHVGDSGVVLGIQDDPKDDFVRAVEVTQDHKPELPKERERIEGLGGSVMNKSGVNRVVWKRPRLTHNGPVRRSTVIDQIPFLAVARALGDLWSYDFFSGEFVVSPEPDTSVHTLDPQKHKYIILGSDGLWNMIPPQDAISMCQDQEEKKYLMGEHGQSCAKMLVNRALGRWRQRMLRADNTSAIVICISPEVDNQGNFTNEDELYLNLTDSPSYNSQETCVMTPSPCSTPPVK
Description: Assessments of the analog of GSK2830371 (analog 1d) binding to wild-type and mutant proteins were conducted using an Auto-iTC200 microcalorimeter (Malvern) (see section on synthesis of analog 1d below). The protein was dialyzed extensively into 25 mM HEPES (pH 7.4), 150 mM NaCl, 10 mM MgCl2 and 1 mM TCEP. The dialyzed protein was used to prepare fresh working solutions of protein (20 µM) and analog 1d (200 µM) in 2% DMSO (v/v) in the same buffer. Titrations were performed at 25 °C and consisted of a single initial injection of 0.4 µL, followed by 19 injections of 2 µL of compound into a sample cell containing wild-type or mutant PPM1D, with an interval of 150 s between successive injections. The reference power and stirring speed were set at […] and 1000 RPM, respectively. Heat of dilution and mixing were obtained from injections of analog 1d into ITC buffer lacking protein and subtracted from the integrated data before curve fitting. Thermodynamic data were analyzed using Origin 7.0 software and fitted by non-linear regression to the model for a single binding site.

PPM1D1–420 [2] = molecular target: T1, PPM1D1–420; test: Surface plasmon resonance (SPR); assay type: binding
Description: SPR was carried out on the Biacore S200 (GE Healthcare) using Series S sensor chip NTA (GE BR-1005-32). The preparation of the chip surface was conducted according to the manufacturer’s indications. The running buffer contained 50 mM Tris (pH 7.5), 50 mM NaCl, 1 mM MgCl2, 0.5 mM TCEP, 0.005% (v/v) P20 surfactant, and 2% DMSO. PPM1D1–420 and PPM1D∆Flap were run under single-cycle mode due to the slow-off-rate kinetics. The two proteins were immobilized on the chip surface in flow cells 2 and 3 with a signal of ~1500–2000 RU at a rate of 5 μL/min while flow cell 1 was left blank as a reference. The running buffer was injected three times followed by the GSK2830371 analyte in solution. Injections were carried out at a flow rate of 50 μL/min with the analyte in a concentration series of 5-point, 3-fold ending at 400 nM top dose. The association and dissociation phases were monitored for 90 s and 600 s, respectively. Collected data were evaluated using the Biacore S200 Evaluation Software under 1:1 binding mode. PPM1D∆Hinge was run under multi-cycle mode due to its fast-on/fast-off kinetics. The protein was immobilized to give a signal of ~ 3000 RU. GSK2830371 analyte in solution was injected at a flow rate of 90 μL/min in a 10-pt, 2-fold concentration series ending at 15 μM top dose. The association and dissociation phases were monitored for 45 s and 150 s, respectively. Since GSK2830371 had issues with solubility/aggregation at high concentrations that caused artifacts in sensorgrams, only steady-state analysis was performed to extract Kd.

PPM1D1–420 [3] = molecular target: T1, PPM1D1–420; test: p38 MAPK enzymatic assay (LC/MS, dephosphorylation of T180); assay type: biochemical; details: PPM1D1–420; full length p38 MAPK substrate, LC/MS
Description: To generate the double phosphorylated form of p38 MAPK for the LC/MS enzymatic PPM1D assay, 20 µM p38 MAPK was incubated with 100 nM MKK6 in 50 mM HEPES pH 7.4, 10 mM ATP, 40 mM MgCl2, and 100 µM TCEP at RT for 2 h. The reaction mixture was diluted 2-fold with 20 mM HEPES pH 7.4, 300 mM NaCl, 100 µM TCEP, and 1 mM MgCl2 and passed over a Superdex 200 26/600 column equilibrated with 20 mM HEPES pH 7.4, 150 mM NaCl, 100 µM TCEP, and 1 mM MgCl2 to remove excess ATP and MKK6 from the phosphorylated p38 MAPK (p38PP) protein. The protein was concentrated and stored in aliquots for single time usage at −80 °C.
The enzymatic activity of the PPM1D constructs was measured by quantifying the dephosphorylation of the substrate protein p38PP by LC/MS. Assays were run in 384-well plates (Axygen; #P-384-120SQ-C) in a final volume of 80 µL per well. The buffer consisted of 20 mM HEPES, 20 mM NaCl, 20 mM MgCl2 and 0.1 mM TCEP, at a pH of 7.5. The reaction was initiated by addition of the p38PP substrate to a solution containing 10 nM PPM1D to a final concentration of 300 nM for p38PP. The plate was then incubated at room temperature and the reaction quenched after 15 min increments with formic acid to a final concentration of 6% (v/v) up to 120 min. For IC50 measurements, the GSK2830371 compound was pre-incubated with the PPM1D constructs in a 2% DMSO-containing buffer for 10 min prior to the addition of the substrate and the reactions were quenched after 2 h. In both experiments, BSA was added to a final concentration of 0.2 µM during the quench step as a carrier protein and injection control for the LC/MS. The plate was then sealed and spun down at 1500 × g for 1 min prior to LC/MS analysis. Plates were analyzed within the same day of the quench step.
Substrate and product detection was achieved by multiple-reaction monitoring (MRM) using a Waters Acquity UPLC chromatography system connected to an Xevo TQ-XS mass spectrometer (Waters, Milford, MA). Source parameters were set as follows: polarity ES+, capillary 2.0 kV, cone voltage, 50 V; collision energy, 5 V; cone gas flow, 200 L/h; collision gas flow, 0.16 mL/min; source temperature, 150 °C; desolvation temperature, 500 °C; and desolvation gas flow, 800 L/h. Analytes were separated using an Agilent PLRP-S Reversed-Phase column (5 µm; 2.1 × 50 mm, 300 Å Agilent Technologies, Santa Clara, CA) at 60 °C. Sample storage temperature was set to 15 °C. Mobile phases consisted of 0.1% (v/v) formic acid (Millipore EMSURE) in LC/MS grade water (JTBaker) and 0.1% v/v formic acid in acetonitrile (Honeywell). Initial column conditions were set to […]. Proteins were eluted using a 1.5 min gradient of 5–98% acetonitrile at 0.4 ml/min. MassLynx and TargetLynx software (Waters, version 4.2) were used for sample acquisition and data analysis, respectively. Analytes were quantified by integration of peak areas under the curve using the transitions 941.10 to 941.05 m/z for P38PP (substrate) and 939.10 to 939.09 m/z for P38P (product). Areas were normalized for instrumental variation by dividing by the BSA peak area (1209.23 to 1209.2 m/z transition) measured in the same well.

- solubility (Solubility): > 100 µM
- Kd (PPM1D1–420 [1]): 0.0109 µM and 0.01 µM
- Kd (PPM1D1–420 [2]; PPM1D1–420, single-cycle kinetics for GSK2830371, read-out: Kd (SPR)): 0.0027 µM
- koff (PPM1D1–420 [2]; SPR kinetics fit, Sup Fig 3B, read-out: koff): 0.0015 s⁻¹
- kon (PPM1D1–420 [2]; SPR kinetics fit, Sup Fig 3B, read-out: kon): 578000 M⁻¹ s⁻¹
- Steady state curve response (PPM1D1–420 [2]; SPR steady state, [1d] (nM) 4.94E-09): 2.128
- IC50 (PPM1D1–420 [3]): 0.0224 µM
SMILES: NCCCCNC(=O)[C@H](CC1CCCCC1)NC(=O)c1ccc(CNc2cc(Cl)ccn2)s1 [analog 1d]
